Results reported in US9815796B2 (Merck Sharp & Dohme Corp., priority 2013, dated 2017).
Where two headings read alike, the source gives them in different places.

Assays:
Rhesus PDE2A3 = Rhesus PDE2A3 (Macaca mulatta, UniProt B3VTJ2); experiment: PDE2 fluorescence polarization (IMAP FP) inhibition assay, rhesus enzyme; assay type: biochemical, rhesus macaque
Summary of the method: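 Rhesus PDE2A3 came from lysate of transiently transfected AD293 cells, diluted to give 20% substrate conversion. Substrate was 50 nM FAM-cAMP with 1 uM cGMP activator in Tris pH 7.2/MgCl2 buffer, run 60 min at room temperature over 10-point 3-fold dilutions in 1% DMSO. Read-out was IMAP fluorescence polarization (mP) after ≥1 h binding.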

human PDE2A1 = human PDE2A1 (Homo sapiens (Human), UniProt O00408); experiment: IMAP FP PDE selectivity panel, human PDE2A1; assay type: biochemical
Summary of the method: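 GST-tagged human PDE2A1 expressed in insect cells, run at room temperature for 60 min with 50 nM FAM-cAMP containing 1000 nM cGMP, pH 7.2 Tris/MgCl2 buffer. IMAP fluorescence polarization read after binding step.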

[1] = Rhesus PDE2, Lab A, read-out: Rhesus PDE2 Ki (nM) - Lab A
[2] = Human PDE2, Lab A, read-out: Human PDE2 Ki (nM) - Lab A
[3] = Rhesus PDE2, Lab B, read-out: Rhesus PDE2 Ki (nM) - Lab B
[4] = Human PDE2, Lab B, read-out: Human PDE2 Ki (nM) - Lab B

Sequence of human PDE2A1 (O00408 other isoform, or with tags, fused parts or gaps): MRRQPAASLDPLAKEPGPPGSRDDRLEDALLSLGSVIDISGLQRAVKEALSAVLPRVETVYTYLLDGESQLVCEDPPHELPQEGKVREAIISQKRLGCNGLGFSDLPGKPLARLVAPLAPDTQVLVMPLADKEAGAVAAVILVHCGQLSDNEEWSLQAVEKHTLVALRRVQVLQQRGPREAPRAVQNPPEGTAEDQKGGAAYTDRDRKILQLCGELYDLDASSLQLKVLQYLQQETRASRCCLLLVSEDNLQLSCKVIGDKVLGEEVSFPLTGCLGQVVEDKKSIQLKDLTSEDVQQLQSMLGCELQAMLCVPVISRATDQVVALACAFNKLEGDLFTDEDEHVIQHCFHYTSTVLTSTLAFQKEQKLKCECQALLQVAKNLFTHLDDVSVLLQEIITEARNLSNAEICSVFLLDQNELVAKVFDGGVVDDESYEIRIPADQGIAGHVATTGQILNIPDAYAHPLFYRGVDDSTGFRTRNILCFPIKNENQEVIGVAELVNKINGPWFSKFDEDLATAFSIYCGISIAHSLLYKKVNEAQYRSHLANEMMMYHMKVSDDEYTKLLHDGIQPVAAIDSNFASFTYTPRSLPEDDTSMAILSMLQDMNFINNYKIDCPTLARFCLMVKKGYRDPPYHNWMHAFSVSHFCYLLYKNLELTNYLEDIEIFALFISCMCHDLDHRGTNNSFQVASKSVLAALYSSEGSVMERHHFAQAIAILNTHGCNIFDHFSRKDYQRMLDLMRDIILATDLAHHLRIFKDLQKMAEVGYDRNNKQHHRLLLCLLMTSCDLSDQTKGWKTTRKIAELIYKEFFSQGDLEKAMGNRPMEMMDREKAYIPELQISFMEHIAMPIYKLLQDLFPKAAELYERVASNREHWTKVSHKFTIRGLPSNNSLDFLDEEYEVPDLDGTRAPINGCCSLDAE
Sequence of Rhesus PDE2A3 (B3VTJ2 1-941): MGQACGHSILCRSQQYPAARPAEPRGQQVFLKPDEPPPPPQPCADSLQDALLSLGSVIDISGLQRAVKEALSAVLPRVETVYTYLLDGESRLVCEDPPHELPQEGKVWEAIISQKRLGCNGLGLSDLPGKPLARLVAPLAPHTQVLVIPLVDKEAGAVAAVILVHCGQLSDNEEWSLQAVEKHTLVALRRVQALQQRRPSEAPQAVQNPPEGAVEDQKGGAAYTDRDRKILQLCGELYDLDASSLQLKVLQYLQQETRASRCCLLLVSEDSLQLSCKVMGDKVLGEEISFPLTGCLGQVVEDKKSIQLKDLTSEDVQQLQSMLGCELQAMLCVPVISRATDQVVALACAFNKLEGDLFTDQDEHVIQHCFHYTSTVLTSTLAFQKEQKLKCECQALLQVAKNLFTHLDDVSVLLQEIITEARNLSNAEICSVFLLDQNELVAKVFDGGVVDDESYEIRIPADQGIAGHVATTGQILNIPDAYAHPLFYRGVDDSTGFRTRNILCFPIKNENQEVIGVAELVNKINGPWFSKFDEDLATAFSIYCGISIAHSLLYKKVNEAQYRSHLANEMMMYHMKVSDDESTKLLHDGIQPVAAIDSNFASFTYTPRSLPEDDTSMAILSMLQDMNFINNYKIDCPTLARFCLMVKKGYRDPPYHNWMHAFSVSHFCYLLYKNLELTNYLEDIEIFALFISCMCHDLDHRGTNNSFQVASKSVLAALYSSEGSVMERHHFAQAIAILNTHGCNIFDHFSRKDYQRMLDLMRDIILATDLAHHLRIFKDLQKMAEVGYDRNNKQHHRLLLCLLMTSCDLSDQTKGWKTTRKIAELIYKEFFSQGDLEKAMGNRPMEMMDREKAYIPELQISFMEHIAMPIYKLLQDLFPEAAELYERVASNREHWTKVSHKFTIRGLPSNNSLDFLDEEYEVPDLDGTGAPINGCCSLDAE

Row | Compound | Ki (Rhesus PDE2A3; [1]) [nM] | Ki (human PDE2A1; [2]) [nM] | Ki (Rhesus PDE2A3; [3]) [nM] | Ki (human PDE2A1; [4]) [nM]
1 | O=C(NC1(c2ccc(OC(F)(F)F)cc2)CCC1)c1cc(=O)[nH]c(-c2ncccn2)n1 [Example 290, 6-oxo-N-(1-(4-(trifluoromethoxy)phenyl)cyclobutyl)-1,6-dihydro-[2,2′-bipyrimidine]-4-carboxamide] | 942 | 540 |  | 
2 | O=C(N[C@@H](c1ccc(SC(F)(F)F)c(F)c1)C1CC1)c1cc(=O)[nH]c(C2CC2)n1 [Example 434] |  |  | 6.7 | 7.9
3 | C[C@@H](NC(=O)c1cc(=O)[nH]c(C2CC2)n1)c1ccc(-c2ccccc2)cc1 [Example 144, N-[(1R)-1-biphenyl-4-ylethyl]-2-cyclopropyl-6-oxo-1,6-dihydropyrimidine-4-carboxamide] | 16 | 6 |  | 
4 | CC(C)(NC(=O)c1cc(=O)[nH]c(C2CC2)n1)c1ccc(OC(F)(F)F)c(F)c1 [Example 198] | 96 | 59 |  | 
5 | Cc1nc(C(=O)NC(C)c2ccc(C(C)(C)C(F)(F)F)cc2)cc(=O)[nH]1 (single isomer, unassigned) [Example 694, (S)- or (R)-2-methyl-6-oxo-N-(1-(4-(1,1,1-trifluoro-2-methylpropan-2-yl)phenyl)ethyl)-1,6-dihydropyrimidine-4-carboxamide] |  |  | > 2970 | > 1240
6 | COc1ccc(C(C)(C)c2nc(C(=O)N[C@@H](c3ccc(C(F)(F)F)cc3)C3CC3)cc(=O)[nH]2)cc1 [Example 502, N-{(R)-cyclopropyl[4-(trifluoromethyl)phenyl]methyl}-2-[1-(4-methoxyphenyl)-1-methylethyl]-6-oxo-1,6-dihydropyrimidine-4-carboxamide] |  |  | 115 | 75
7 | O=C(NC1(c2ccc(SC(F)(F)F)cc2)CC1)c1cc(=O)[nH]c(-c2ccccc2)n1 [Example 159, 6-oxo-2-phenyl-N-(1-{4-[(trifluoromethyl)sulfanyl]phenyl}cyclopropyl)-1,6-dihydropyrimidine-4-carboxamide] | 7.6 | 4.9 |  | 
8 | COc1ccc(Cc2nc(C(=O)N[C@@H](c3ccc(SC(F)(F)F)c(F)c3)C3CC3)cc(=O)[nH]2)cc1F [Example 520, N-[(R)-cyclopropyl{3-fluoro-4-[(trifluoromethyl)sulfanyl]phenyl}methyl]-2-(3-fluoro-4-methoxybenzyl)-6-oxo-1,6-dihydropyrimidine-4-carboxamide] |  |  | 3.8 | 3.6
9 | CC(C)[C@@H](NC(=O)c1cc(=O)[nH]c(-c2ncccn2)n1)c1ccc(OC(F)(F)F)cc1 [Example 75, N-{(1R)-2-methyl-1-[4-(trifluoromethoxy)phenyl]propyl}-6-oxo-1,6-dihydro-2,2′-bipyrimidine-4-carboxamide] | 5.1 | 3 |  | 
10 | C[C@@H](NC(=O)c1cc(=O)[nH]c(C2CC2)n1)c1ccc(OC(F)(F)F)cc1F [Example 297, 2-cyclopropyl-N-{(1R)-1-[2-nuoro-4-(trifluoromethoxy)phenyl]ethyl}-6-oxo-1,6-dihydropyrimidine-4-carboxamide] | 30 | 16 |  | 
11 | O=C(N[C@@H](c1ccc(OC(F)(F)F)cc1)C1CC1)c1cc(=O)[nH]c(-c2ccccc2)n1 [Example 175, N-{(R)-cyclopropyl[4-(trifluoromethoxy)phenyl]methyl}-6-oxo-2-phenyl-1,6-dihydropyrimidine-4-carboxamide] | 3.9 | 3.9 |  | 
12 | Cc1nc(C(=O)N[C@@H](c2ccc(OC(F)(F)F)c(F)c2)C2CC2)cc(=O)[nH]1 [Example 40, N-{(R)-cyclopropyl[3-fluoro-4-(trifluoromethoxy)phenyl]methyl}-2-methyl-6-oxo-1,6-dihydropyrimidine-4-carboxamide] | 19 | 9.3 |  | 
13 | CC(C)(C)[C@@H](NC(=O)c1cc(=O)[nH]c(C2CC2)n1)c1ccc(OC(F)(F)F)cc1 [Example 463, 2-cyclopropyl-N-{(1R)-2,2-dimethyl-1-[4-(trifluoromethoxy)phenyl]propyl}-6-oxo-1,6-dihydropyrimidine-4-carboxamide] |  |  | 1.2 | 0.84
14 | O=C(NC1(c2ccc(OC(F)(F)F)cc2)CC1)c1cc(=O)[nH]c(-c2ccccc2)n1 [Example 277, 6-oxo-2-phenyl-N-{1-[4-(trifluoromethoxy)phenyl]cyclopropyl}-1,6-dihydropyrimidine-4-carboxamide] | 6.6 | 5.6 |  | 
15 | CC[C@@H](NC(=O)c1cc(=O)[nH]c(Cc2ccc(OC)c(F)c2)n1)c1ccc(SC(F)(F)F)c(F)c1 [Example 519, 2-(3-fluoro-4-methoxybenzyl)-N-[(1R)-1-{3-fluoro-4-[(trifluoromethyl)sulfanyl]phenyl}propyl]-6-oxo-1,6-dihydropyrimidine-4-carboxamide] |  |  | 1.7 | 2
16 | COc1ccc(Cc2nc(C(=O)N[C@@H](c3ccc(OC(F)(F)F)cc3)C3CC3)cc(=O)[nH]2)cc1 [Example 480, N-{(R)-cyclopropyl[4-(trifluoromethoxy)phenyl]methyl}-2-(4-methoxybenzyl)-6-oxo-1,6-dihydropyrimidine-4-carboxamide] |  |  | 1.9 | 1.9
17 | COc1ccc2cc(C(C)NC(=O)c3cc(=O)[nH]c(C)n3)ccc2c1 (single isomer, unassigned) [Example 313, (R)- or (S)-N-[1-(6-methoxynaphthalen-2-yl)ethyl]-2-methyl-6-oxo-1,6-dihydropyrimidine-4-carboxamide] | 51 | 54 |  | 
18 | COc1cc(OC(F)(F)F)ccc1C(C)NC(=O)c1cc(=O)[nH]c(C2CC2)n1 (centres unmarked) [Example 230, 2-cyclopropyl-N-{1-[2-methoxy-4-(trifluoromethoxy)phenyl]ethyl}-6-oxo-1,6-dihydropyrimidine-4-carboxamide] | 25 | 11 |  | 
19 | CC(NC(=O)c1cc(=O)[nH]c(-c2ncccn2)n1)c1ccc(C2CC2)cc1 (centres unmarked) [Example 83, N-[1-(4-cyclopropylphenyl)ethyl]-6-oxo-1,6-dihydro-2,2′-bipyrimidine-4-carboxamide] | 21 | ~5.4 | 26 | 27
20 | O=C(NC1(c2ccc(C(F)(F)F)cc2)CCCC1)c1cc(=O)[nH]c(-c2ccccc2)n1 [Example 415, 6-oxo-2-phenyl-N-{1-[4-(trifluoromethyl)phenyl]cyclopentyl}-1,6-dihydropyrimidine-4-carboxamide] |  |  | 29 | 30
21 | O=C(N[C@@H](c1ccc(SC(F)(F)F)cc1)C1CC1)c1cc(=O)[nH]c(C2CC2)n1 [Example 214, 2-cyclopropyl-N-[(R)-cyclopropyl{4-[(trifluoromethyl)sulfanyl]phenyl}methyl]-6-oxo-1,6-dihydropyrimidine-4-carboxamide] | 5 | 2.4 |  | 
22 | O=C(NC1(c2ccc(C(F)(F)F)cc2)CCC1)c1cc(=O)[nH]c(-c2ncccn2)n1 [Example 286, 6-oxo-N-{1-[4-(trifluoromethyl)phenyl]cyclobutyl}-1,6-dihydro-2,2′-bipyrimidine-4-carboxamide] | 83 | 60 |  | 
23 | COc1ccc(C(C)(C)c2nc(C(=O)N[C@@H](c3ccc(OC(F)(F)F)cc3)C3CC3)cc(=O)[nH]2)cc1 [Example 501, N-{(R)-cyclopropyl[4-(trifluoromethoxy)phenyl]methyl}-2-[1-(4-methoxyphenyl)-1-methylethyl]-6-oxo-1,6-dihydropyrimidine-4-carboxamide] |  |  | 77 | 64
24 | O=C(N[C@@H](c1ccc(C(F)(F)F)c(F)c1)C1CC1)c1cc(=O)[nH]c(-c2ccccc2)n1 [Example 174, N-{(R)-cyclopropyl[3-fluoro-4-(trifluoromethyl)phenyl]methyl}-6-oxo-2-phenyl-1,6-dihydropyrimidine-4-carboxamide] | 5.7 | 4.5 |  | 
25 | CCc1ccc(C(C)NC(=O)c2cc(=O)[nH]c(-c3ccccc3)n2)cc1 (centres unmarked) [Example 165, N-[1-(4-ethylphenyl)ethyl]-6-oxo-2-phenyl-1,6-dihydropyrimidine-4-carboxamide] | 16 | 12 |  | 
26 | COc1ccc(Cc2nc(C(=O)N[C@@H](c3ccc(OC(F)(F)F)c(F)c3)C(C)C)cc(=O)[nH]2)cc1F [Example 515, 2-(3-fluoro-4-methoxybenzyl)-N-{(1R)-1-[3-fluoro-4-(trifluoromethoxy)phenyl]-2-methylpropyl}-6-oxo-1,6-dihydropyrimidine-4-carboxamide] |  |  | 1.1 | 1
27 | Cc1nc(C(=O)N[C@@H](c2ccc(C(C)(C)C)cc2)C2(C)CC2)cc(=O)[nH]1 [Example 614, N-[(R)-(4-tert-butylphenyl)(1-methylcyclopropyl)methyl]-2-methyl-6-oxo-1,6-dihydropyrimidine-4-carboxamide] |  |  | 20 | 17
28 | Cc1nc(C(=O)N[C@H](C)c2ccc(S(F)(F)(F)(F)F)cc2)cc(=O)[nH]1 [Example 37, 2-methyl-6-oxo-N-{(1R)-1-[4-(pentafluoro-λ^6-sulfanyl)phenyl]ethyl}-1,6-dihydropyrimidine-4-carboxamide] | 17 | 14 | 19 | 27
29 | Cc1nc(C(=O)NC2(c3ccc(C(C)(C)C)cc3)CC2)cc(=O)[nH]1 [Example 623, N-[1-(4-tert-butylphenyl)cyclopropyl]-2-methyl-6-oxo-1,6-dihydropyrimidine-4-carboxamide] |  |  | 29 | 31
